{"source": "patent US20250236596A1", "about": "“HYDROXYLAMINE-BASED EGFR INHIBITORS FOR TREATMENT OF CANCER WITH BRAIN METASTASES” (University of Georgia Research Foundation, Inc., priority 2022, published 2025)", "key": {"CYP2D6": {"molecular_target": "CYP2D6 (Homo sapiens, UniProt P10635)", "sequence (P10635 whole entry)": "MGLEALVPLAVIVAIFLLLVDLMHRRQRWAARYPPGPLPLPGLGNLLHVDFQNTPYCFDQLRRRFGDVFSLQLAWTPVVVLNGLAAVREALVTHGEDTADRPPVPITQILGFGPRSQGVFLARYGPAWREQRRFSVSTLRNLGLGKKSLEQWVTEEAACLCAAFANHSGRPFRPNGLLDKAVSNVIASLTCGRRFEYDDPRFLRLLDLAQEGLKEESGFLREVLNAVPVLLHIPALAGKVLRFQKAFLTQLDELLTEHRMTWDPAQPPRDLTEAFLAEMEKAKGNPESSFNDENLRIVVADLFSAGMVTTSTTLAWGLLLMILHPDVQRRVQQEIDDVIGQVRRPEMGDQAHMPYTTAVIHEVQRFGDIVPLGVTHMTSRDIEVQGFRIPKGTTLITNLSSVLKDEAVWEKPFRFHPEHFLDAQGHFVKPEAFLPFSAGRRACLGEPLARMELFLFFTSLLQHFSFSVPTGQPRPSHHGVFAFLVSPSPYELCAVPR", "experiment": "CYP2D6 time-dependent inhibition IC50-shift", "type": "in vitro ADME", "conditions": "human liver microsomes and primary human hepatocytes; 30 min pre-incubation", "description": "Incubations in human hepatocytes were carried out without pre-incubation or with a 30 min pre-incubation at 37° C., 5% CO2. The experiment was carried out at 37° C., 5% CO2 for 5 min."}, "Caco-2 cells": {"tested_on": "Caco-2 cells", "experiment": "Caco-2 cell permeability assay", "type": "in vitro ADME", "conditions": "result in words", "description": "Compounds were evaluated at Pharmaron Inc. for their ability to permeate Caco-2 cells and MDCKII-MDR1 cells. A 96-well HTS Transwell plate (Corning) was used for the Caco-2 and MDCKII-MDR1 cell seeding. Caco-2 cells were seeded at a density of 6.86×10^5 cells/mL and cultivated for 14-18 days prior to assays. MDCKII-MDR1 cells were seeded at a density of 1.56×10^6 cells/mL and cultivated for 4-8 days prior to assays. To determine the rate of drug transport in both the absorptive (apical to basolateral (A-B)) and secretory (basolateral to apical (B-A)) directions, compounds (5 μM in DMSO for Caco-2 cells, and 1 μM in DMSO for MDCKII-MDR1 cells) were added to the donor wells. Plates were incubated at 37° C. for 2 h and samples (50 μL) were taken at the beginning and end of the incubation in both the donor and acceptor wells with the assay run in duplicate (n=2). Samples were analyzed by LC-MS/MS. The apparent permeability coefficient (Papp) in units (cm/s×10^−6) was calculated using the following equation.\nwhere, VA represents the volume (mL) in the acceptor well. Area is the surface of the membrane (0.143 cm^2 for Transwell-96 well plate) and time is the total transport time in sec.\nThe efflux ratio was determined using the following equation: Efflux ratio=Papp (B-A)/Papp(A-B)\nWhere, Papp (B-A) indicates the apparent permeability in the basolateral to apical direction, and Papp (A-B) indicates the apparent permeability in the apical to basolateral direction."}, "[1]": {"tested_on": "Chinese hamster ovary (CHO-K1) cells", "experiment": "In vitro micronucleus test", "type": "cell-based", "conditions": "for concentration to which negative micronucleus result is valid: cytotoxicity above", "description": "Compound 15 was assessed for genotoxicity by Eurofins Panlabs. using the in vitro micronucleus test in Chinese hamster ovary (CHO-K1) cells as previously described.^22 Compound 15 was incubated in a 96-well plate format at varying concentrations (8, 16, 31, 62, 125, 250, 500 and 1000 μM) for 4 h at 37° C. with metabolic activation by rat liver S9 and 24 h at 37° C. without metabolic activation by rat liver S9. High content analysis and fluorescence imaging were used to detect micronuclei and compared against positive controls (cyclophosphamide (ran at 7.2 μM) and mitomycin C (ran at 0.3 μM)). Significances of the positive counts between the treatment and control were determined by one-tailed t-test with two sample equal variance."}, "CYP1A2": {"molecular_target": "CYP1A2 (Homo sapiens, UniProt P05177)", "sequence (P05177 whole entry, canonical isoform)": "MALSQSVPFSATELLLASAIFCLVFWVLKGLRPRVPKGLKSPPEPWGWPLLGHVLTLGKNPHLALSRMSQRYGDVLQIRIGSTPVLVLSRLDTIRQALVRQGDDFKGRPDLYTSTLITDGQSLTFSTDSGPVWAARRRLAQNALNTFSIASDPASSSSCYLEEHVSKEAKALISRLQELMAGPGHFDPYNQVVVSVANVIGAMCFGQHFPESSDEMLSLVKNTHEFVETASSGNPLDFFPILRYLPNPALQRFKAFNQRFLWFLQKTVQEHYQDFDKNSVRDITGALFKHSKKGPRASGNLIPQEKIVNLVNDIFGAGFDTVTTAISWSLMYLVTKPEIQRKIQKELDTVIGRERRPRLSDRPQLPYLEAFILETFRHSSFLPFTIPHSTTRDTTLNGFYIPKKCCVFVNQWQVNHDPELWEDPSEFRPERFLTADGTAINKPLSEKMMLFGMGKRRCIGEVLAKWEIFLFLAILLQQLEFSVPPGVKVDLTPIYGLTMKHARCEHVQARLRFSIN", "experiment": "Human CYP450 inhibition in human liver microsomes, CYP1A2", "type": "in vitro ADME", "conditions": "pooled human liver microsomes, probe phenacetin (40 μM), O-demethylation", "description": "Assessment of compound 15 was carried out at Pharmaron Inc. for its potential to inhibit cytochrome P450 (CYP) isoforms using human liver microsomes. The activities tested were CYP1A2-mediated phenacetin O-demethylation, CYP2C19-mediated (S)-mephenytoin 4′-hydroxylation, CYP2C9-mediated diclofenac 4′-hydroxylation, CYP2D6-mediated dextromethorphan O-demethylation and CYP3A4-mediated midazolam 1′-hydroxylation. Concentrations of substrates were phenacetin (40 μM), mephenytoin (50 μM), diclofenac (6 μM), dextromethorphan (2 μM) and midazolam (1 μM). Probe substrates phenacetin, mephenytoin and dextromethorphan were incubated at 37° for 20 min. Probe substrates diclofenac and midazolam were incubated at 37° for 5 min. […] The reactions were initiated by adding NADPH (1 mM final concentration) after a 5 min-preincubation and the assay was ran in duplicate (n=2). Samples were analyzed by UPLC-MS/MS."}, "[2]": {"experiment": "Pharmacokinetics in SD rats (IV and PO)", "type": "in vivo", "conditions": "SD rats at the tested doses", "description": "Animal experiments were performed at Pharmaron Inc. and animal use was approved by Pharmaron's Institutional Animal Care and Use Committee (IACUC) in Pharmaron (Pharmaron IACUC, Protocol #PK-M-07182022, #PK-R-06012022 and #ON-CELL-XEN-06012022) following the guidance of AAALAC. Six- to eight-week-old male SD rats (approximately 200-300 g) obtained from Si Bei Fu Laboratory Animal Technology Co., six- to eight-week-old male CD1 mice (approximately 20-30 g) obtained from Si Bei Fu Laboratory Animal Technology Co., and six- to eight-week-old female BALB/c nude mice (approximately 20-30 g) obtained from Si Bei Fu Laboratory Animal Technology Co., were used in the pharmacokinetic studies. Six- to eight-week-old female BALB/c nude mice (approximately 18-22 g) obtained from Beijing Anikeeper Biotech Co., Ltd were used in the intracranial PDX study. […]\nApproximately 0.03 mL of blood was collected from the dorsal metatarsal vein (in the case of CD1 mice), 0.03 mL of blood from the orbit vein (in the case of BALB/c nude mice) or 0.2 mL of blood from the jugular vein (in the case of SD rats) at each time point. […] Concentrations of test articles in the plasma samples were determined using LC-MS/MS and WinNonlin 8.3 (Phoenix™) was used for pharmacokinetic calculations. […]"}, "[3]": {"experiment": "Solubility in PBS at pH 7.4", "type": "physicochemical", "conditions": "compared to both 1 and 6; result in words", "description": "Solubility was determined by Pharmaron Inc. and each compound was assessed in duplicate (n=2) by adding 15 μL of compound stock solution (10 mM in DMSO) into a 96-well plate along with 485 μL of buffer followed by shaking at 25° C., 1,100 rpm for 2 h. Wells were filtered and samples (5 μL) were taken followed by dilution with an equal volume of DMSO (5 μL) and 490 μL of aqueous solution. Samples were analyzed by LC-MS/MS."}, "[4]": {"tested_on": "468-member human kinase panel", "experiment": "KINOMEScan kinase selectivity panel, S score", "type": "binding", "conditions": "1 μM; 6/403 nonmutant kinases", "text": "Percent control was mapped onto the kinome tree using TREEspot™."}}, "note": "Entries after “also recorded” stand apart in the source; their conditions may differ."}
{"smiles": "COc1cc2ncnc(Nc3cccc(Cl)c3F)c2cc1OCCON1CCN(C)CC1", "note": "[Compound 15, N-(3-chloro-2-fluorophenyl)-7-methoxy-6-(2-((4-methylpiperazin-1-yl)oxy)ethoxy)quinazolin-4-amine]", "values": [{"measurement": "CYP2D6 time-dependent inhibition (TDI)", "setting": "CYP2D6", "value": "not to be time dependent"}, {"measurement": "efflux", "setting": "Caco-2 cells", "value": "reduced efflux ratios"}, {"measurement": "permeability", "setting": "Caco-2 cells", "value": "remarkably enhanced permeability"}, {"measurement": "concentration to which negative micronucleus result is valid", "setting": "[1]; +rat liver S9", "value": "≤ 31", "unit": "µM"}, {"measurement": "genotoxicity in in vitro micronucleus test", "setting": "[1]; CHO-K1, with and without rat liver S9", "value": "negative; also recorded: neither mutagenic nor genotoxic potential"}, {"measurement": "concentration to which negative micronucleus result is valid", "setting": "[1]; −rat liver S9", "value": "≤ 8", "unit": "µM"}, {"measurement": "IC50 at 20 min", "setting": "CYP1A2", "value": "> 30", "unit": "µM"}, {"measurement": "adverse events or signs of toxicity", "setting": "[2]", "value": "No adverse events or signs of toxicity"}, {"measurement": "aqueous solubility", "setting": "[3]", "value": "markedly improved aqueous solubility"}, {"measurement": "S(10) score", "setting": "[4]", "value": 0.015}]}
